Measurements: ChEMBL document CHEMBL1697781, “Assessment of the health effects of chemicals in humans: II. Construction of an adverse effects database for QSAR modeling” (Curr Drug Discov Technol, 2004)

Assays:
Conditions in all cases: human; call rule not given here
Hepatotoxicity [1] = assay: FDA HLAED, liver enzyme composite activity
Hepatotoxicity [2] = assay: FDA HLAED, alkaline phosphatase increase
Hepatotoxicity [3] = assay: FDA HLAED, gamma-glutamyl transferase (GGT) increase
Hepatotoxicity [4] = assay: FDA HLAED, serum glutamic pyruvic transaminase (SGPT) increase
Hepatotoxicity [5] = assay: FDA HLAED, lactate dehydrogenase (LDH) increase
Hepatotoxicity [6] = assay: FDA HLAED, serum glutamic oxaloacetic transaminase (SGOT) increase
For GGT Increase - Index Value in this document: reference of the scale not given here.
For LDH Increase - Index Value in this document: reference of the scale not given here.

Structure (SMILES) | Composite Activity - Active (Hepatotoxicity [1]) | Composite Activity - Marginal (Hepatotoxicity [1]) | Composite Activity - Score (Hepatotoxicity [1]) | Alkaline Phosphatase Increase - Activity Score (Hepatotoxicity [2]) | Alkaline Phosphatase Increase - Index Value (Hepatotoxicity [2]) | Alkaline Phosphatase Increase - Number of Reports (Hepatotoxicity [2]) | GGT Increase - Activity Score (Hepatotoxicity [3]) | GGT Increase - Index Value (Hepatotoxicity [3]) | GGT Increase - Number of Reports (Hepatotoxicity [3]) | SGPT Increase - Activity Score (Hepatotoxicity [4]) | SGPT Increase - Index Value (Hepatotoxicity [4]) | SGPT Increase - Number of Reports (Hepatotoxicity [4]) | LDH Increase - Activity Score (Hepatotoxicity [5]) | LDH Increase - Index Value (Hepatotoxicity [5]) | LDH Increase - Number of Reports (Hepatotoxicity [5]) | SGOT Increase - Activity Score (Hepatotoxicity [6]) | SGOT Increase - Index Value (Hepatotoxicity [6]) | SGOT Increase - Number of Reports (Hepatotoxicity [6]) | Composite Activity - Active (Hepatotoxicity [1]; Liver) | Composite Activity - Marginal (Hepatotoxicity [1]; Liver) | other results
O=S(=O)([O-])CCS.[Na+] [MESNA] | 0 | 0 | Inactive | Inactive | 0 | < 4 | Inactive | 0 | < 4 | Inactive | 0 | < 4 | Inactive | 5 | < 4 | Inactive | 5 | < 4 | – | – | –
CN(C)C(=N)N=C(N)N [METFORMIN] | – | – | – | Inactive | 0 | < 4 | Inactive | 0 | < 4 | Inactive | 0 | < 4 | Inactive | 0 | < 4 | Inactive | 0 | < 4 | 0 | 0 | Composite Activity - Score (Hepatotoxicity [1]; Liver): Inactive
CC(=O)Oc1c(C)cc(OCC(O)CNC(C)C)c(C)c1C (stereo unspecified) [METIPRANOLOL] | 0 | 0 | Inactive | Inactive | 0 | < 4 | Inactive | 0 | < 4 | Inactive | 0 | < 4 | Inactive | 0 | < 4 | Inactive | 0 | < 4 | – | – | –
CCN(CC)CCNC(=O)c1cc(Cl)c(N)cc1OC [METOCLOPRAMIDE] | 0 | 0 | Inactive | Inactive | No Shipping Units | < 4 | Inactive | 0 | < 4 | Inactive | 0 | < 4 | Inactive | 0 | < 4 | Inactive | 0 | < 4 | – | – | –
COCCc1ccc(OCC(O)CNC(C)C)cc1 (stereo unspecified) [METOPROLOL] | 0 | 0 | Inactive | Inactive | 0.4 | >= 4 | Inactive | 0 | < 4 | Inactive | 0.5 | >= 4 | Inactive | 0.3 | < 4 | Inactive | 0.5 | >= 4 | – | – | –
C[C@](N)(Cc1ccc(O)cc1)C(=O)O [METYROSINE] | – | – | – | Inactive | 0 | < 4 | Inactive | 0 | < 4 | Inactive | 0 | < 4 | Inactive | 0 | < 4 | Inactive | 0 | < 4 | 0 | 0 | Composite Activity - Score (Hepatotoxicity [1]; Liver): Inactive
Cc1cccc(C)c1OCC(C)N (stereo unspecified) [MEXILETINE] | – | – | – | Marginally Active | 3.1 | >= 4 | Inactive | 0 | < 4 | Marginally Active | 3.6 | >= 4 | Inactive | 2 | >= 4 | Active | 6.7 | >= 4 | 1 | 2 | Composite Activity - Score (Hepatotoxicity [1]; Liver): Inactive
CC1(C)S[C@@H]2[C@H](NC(=O)[C@H](NC(=O)N3CCN(S(C)(=O)=O)C3=O)c3ccccc3)C(=O)N2[C@H]1C(=O)O [MEZLOCILLIN] | – | – | – | Inactive | 1.9 | < 4 | Inactive | 0 | < 4 | Inactive | 0 | < 4 | Inactive | 0 | < 4 | Inactive | 0 | < 4 | 0 | 0 | Composite Activity - Score (Hepatotoxicity [1]; Liver): Inactive
Cc1ncc2n1-c1ccc(Cl)cc1C(c1ccccc1F)=NC2 [MIDAZOLAM] | 0 | 0 | Inactive | Inactive | 0.2 | < 4 | Inactive | 0 | < 4 | Inactive | 0.2 | < 4 | Inactive | 0 | < 4 | Inactive | 0.2 | < 4 | – | – | –
COc1ccc(OC)c(C(O)CNC(=O)CN)c1 (stereo unspecified) [MIDODRINE] | 0 | 0 | Inactive | Inactive | 0 | < 4 | Inactive | 0 | < 4 | Inactive | 0 | < 4 | Inactive | 0 | < 4 | Inactive | 0 | < 4 | – | – | –
Nc1cc(N2CCCCC2)nc(N)[n+]1[O-] [MINOXIDIL] | 0 | 0 | Inactive | Inactive | 0.7 | >= 4 | Inactive | 0.3 | < 4 | Inactive | 1.1 | >= 4 | Inactive | 0 | < 4 | Inactive | 0.9 | >= 4 | – | – | –
CN1CCN2c3ncccc3Cc3ccccc3C2C1 (stereo unspecified) [MIRTAZAPINE] | 1 | 2 | Inactive | Inactive | 0.9 | < 4 | Marginally Active | 3.6 | < 4 | Active | 6.4 | >= 4 | Inactive | 0.9 | < 4 | Marginally Active | 3.6 | >= 4 | – | – | –
